Assay results as given in patent US20110039890A1, “4-[2,3-Difluoro-6-(2-fluoro-4-methyl-phenylsulfanyl)-phenyl]-piperidine” (H. LUNDBECK A/S, priority 2007, published 2011).

Key:
[1] = biological target: T1, 5-HT2A receptor (Homo sapiens, UniProt P28223); assay: affinity to human serotonin receptor 5-HT2A; format: binding; conditions: calculated from the Cheng-Prusoff equation
Excerpt: (§1) Affinity (Ki, nM) for compound I to human serotonin receptors calculated from the Cheng-Prusoff equation

[2] = biological target: T2, 5-HT2C receptor (Homo sapiens, UniProt P28335); assay: functional assay, 5-HT2C antagonism; format: cell-based; conditions: read-out: Kb, antagonist of the 5-HT2C receptor
T2 sequence (P28335 33-458): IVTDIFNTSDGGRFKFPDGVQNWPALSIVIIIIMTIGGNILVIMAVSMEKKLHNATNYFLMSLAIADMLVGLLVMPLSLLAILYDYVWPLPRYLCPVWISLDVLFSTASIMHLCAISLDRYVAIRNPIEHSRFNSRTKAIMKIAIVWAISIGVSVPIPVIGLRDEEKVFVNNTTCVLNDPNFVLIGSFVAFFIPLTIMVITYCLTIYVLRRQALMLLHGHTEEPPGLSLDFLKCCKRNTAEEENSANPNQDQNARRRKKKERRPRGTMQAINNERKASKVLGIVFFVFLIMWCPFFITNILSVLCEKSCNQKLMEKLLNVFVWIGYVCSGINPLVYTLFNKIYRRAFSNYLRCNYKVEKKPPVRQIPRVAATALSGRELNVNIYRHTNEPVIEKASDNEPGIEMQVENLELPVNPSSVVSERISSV

[3] = biological target: T1, 5-HT2A receptor; assay: functional FLIPR assay, 5-HT2A antagonism; format: cell-based; conditions: read-out: Kb, antagonist of the 5-HT2A receptor
[4] = biological target: T3, [3H]-noradrenaline reuptake (NAT) (Rattus norvegicus, UniProt Q63380); assay: inhibition of [3H]-noradrenaline reuptake in rat synaptosomes; format: biochemical
T3 construct: from tissue
Excerpt: (§2) IC50 (nM) values Compound I inhibition of the reuptake in rat synaptosomes:
(§3) [^3H]-serotonin: 2.4 [^3H]-noradrenaline: 12

[5] = biological target: T4, [3H]-serotonin reuptake (SERT) (Rattus norvegicus, UniProt P31652); assay: inhibition of [3H]-serotonin reuptake in rat synaptosomes; format: biochemical
T4 construct: from tissue
Excerpt: as §2, §3

[6] = biological target: T2, 5-HT2C receptor; assay: affinity to human serotonin receptor 5-HT2C; format: binding; conditions: calculated from the Cheng-Prusoff equation
Excerpt: as §1

[7] = system: mice, formalin-injected hind paw; assay: formalin model of neuropathic pain; format: in vivo; conditions: for time spent licking the injured paw, 0-5 minutes: first phase, vehicle 51; for time spent licking the injured paw, 20-30 minutes: second phase, vehicle 66
Method: There are several well validated animal models of neuropathic pain available for assess of antinociceptive potential of drugs. Among the most frequently used model are chronic constriction injury models (for example Bennett and Xie, Pain, 1988) and the capsaicin (Gilchrist et al., Pain 1996) and formalin [Neuropharm., 48, 252-263, 2005; Pain, 51, 5-17, 1992] models. […] In this model, mice receive an injection of formalin (4.5%, 20 μl) into the plantar surface of the left hind paw and are afterwards placed into individual glass beakers (2 l capacity) for observation. The irritation caused by the formalin injection elicits a characteristic biphasic behavioural response, as quantified by the amount of time spent licking the injured paw. The first phase (˜0-10 minutes) represents direct chemical irritation and nociception, whereas the second (˜20-30 minutes) is thought to represent pain of neuropathic origin. The two phases are separated by a quiescent period in which behaviour returns to normal. Measuring the amount of time spent licking the injured paw in the two phases assesses the effectiveness of test compounds to reduce the neuropathic-like pain response.

T1 sequence (P28223 whole entry): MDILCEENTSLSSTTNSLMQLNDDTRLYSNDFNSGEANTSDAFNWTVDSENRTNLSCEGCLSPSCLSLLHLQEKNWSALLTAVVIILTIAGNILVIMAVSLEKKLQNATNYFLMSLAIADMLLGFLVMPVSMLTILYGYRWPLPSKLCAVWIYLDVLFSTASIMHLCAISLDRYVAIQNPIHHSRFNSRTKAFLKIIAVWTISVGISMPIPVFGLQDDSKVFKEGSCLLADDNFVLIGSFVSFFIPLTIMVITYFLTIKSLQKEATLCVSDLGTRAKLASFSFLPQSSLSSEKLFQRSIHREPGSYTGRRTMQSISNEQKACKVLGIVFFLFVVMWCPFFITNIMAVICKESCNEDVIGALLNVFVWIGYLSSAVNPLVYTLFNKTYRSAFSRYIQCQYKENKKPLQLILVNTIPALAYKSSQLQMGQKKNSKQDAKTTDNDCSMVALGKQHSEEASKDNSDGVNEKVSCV
T3 sequence (Q63380 1-617): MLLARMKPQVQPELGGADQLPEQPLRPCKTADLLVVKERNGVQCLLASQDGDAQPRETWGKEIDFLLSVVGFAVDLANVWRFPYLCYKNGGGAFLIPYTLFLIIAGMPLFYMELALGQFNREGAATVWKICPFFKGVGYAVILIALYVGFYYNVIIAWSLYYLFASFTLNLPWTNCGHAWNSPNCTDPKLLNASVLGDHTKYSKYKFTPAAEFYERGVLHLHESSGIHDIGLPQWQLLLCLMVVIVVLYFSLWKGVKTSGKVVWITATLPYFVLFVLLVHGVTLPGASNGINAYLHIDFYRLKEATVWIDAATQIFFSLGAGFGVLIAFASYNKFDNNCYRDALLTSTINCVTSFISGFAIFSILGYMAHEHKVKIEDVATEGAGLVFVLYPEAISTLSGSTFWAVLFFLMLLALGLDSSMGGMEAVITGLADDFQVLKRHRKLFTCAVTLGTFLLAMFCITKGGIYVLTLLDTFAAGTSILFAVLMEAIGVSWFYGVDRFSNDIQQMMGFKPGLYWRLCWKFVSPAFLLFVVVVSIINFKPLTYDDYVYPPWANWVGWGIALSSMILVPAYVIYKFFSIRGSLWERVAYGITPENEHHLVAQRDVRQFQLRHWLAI
T4 sequence (P31652 whole entry): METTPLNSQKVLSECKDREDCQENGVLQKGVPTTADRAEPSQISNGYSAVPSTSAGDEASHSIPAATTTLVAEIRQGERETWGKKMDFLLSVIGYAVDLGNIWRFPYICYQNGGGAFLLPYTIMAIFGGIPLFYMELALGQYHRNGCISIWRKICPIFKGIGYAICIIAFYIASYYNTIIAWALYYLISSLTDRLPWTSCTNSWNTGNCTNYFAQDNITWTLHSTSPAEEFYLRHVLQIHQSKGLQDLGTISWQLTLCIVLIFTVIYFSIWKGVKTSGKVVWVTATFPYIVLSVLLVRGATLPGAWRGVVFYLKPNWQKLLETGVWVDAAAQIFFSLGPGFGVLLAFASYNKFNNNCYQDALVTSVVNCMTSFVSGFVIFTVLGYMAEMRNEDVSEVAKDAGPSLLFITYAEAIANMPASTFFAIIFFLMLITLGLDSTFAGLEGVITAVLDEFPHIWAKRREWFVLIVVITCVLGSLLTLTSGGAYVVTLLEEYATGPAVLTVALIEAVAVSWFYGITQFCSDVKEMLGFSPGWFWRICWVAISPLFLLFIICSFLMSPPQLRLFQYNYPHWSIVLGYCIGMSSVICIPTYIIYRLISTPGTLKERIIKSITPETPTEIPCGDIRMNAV

## Cc1ccc(Sc2ccc(F)c(F)c2C2CCNCC2)c(F)c1 [compound I, 4-[2,3-difluoro-6-(2-fluoro-4-methyl-phenylsulfanyl)-phenyl]-piperidine]
[1]
  Ki: 13 nM
[2]
  Kb: ~35 nM
[3]
  Kb: ~130 nM
[4]
  IC50: 12 nM
[5]
  IC50: 2.4 nM
[6]
  Ki: 4.9 nM
[7]; 0.25 mg/kg s.c
  time spent licking the injured paw, 0-5 minutes: 40 s
  time spent licking the injured paw, 20-30 minutes: 48 s
[7]; 1 mg/kg s.c
  time spent licking the injured paw, 0-5 minutes: 40 s
  time spent licking the injured paw, 20-30 minutes: 21 s
[7]; 2.5 mg/kg s.c
  time spent licking the injured paw, 0-5 minutes: 31 s
  time spent licking the injured paw, 20-30 minutes: 7 s
[7]; 0.25-2.5 mg/kg s.c, in words
  effect in the first phase (direct chemical irritation and nociception): little effect
  effect on time spent licking the injured paw in the second phase (neuropathic pain): clear and dose-dependent decrease
